# Target: T1, human orexin-2 receptor (OX2R) (Homo sapiens, UniProt O43614)
# T1 construct: expressed in transfected cells
# T1 sequence (O43614 1-444): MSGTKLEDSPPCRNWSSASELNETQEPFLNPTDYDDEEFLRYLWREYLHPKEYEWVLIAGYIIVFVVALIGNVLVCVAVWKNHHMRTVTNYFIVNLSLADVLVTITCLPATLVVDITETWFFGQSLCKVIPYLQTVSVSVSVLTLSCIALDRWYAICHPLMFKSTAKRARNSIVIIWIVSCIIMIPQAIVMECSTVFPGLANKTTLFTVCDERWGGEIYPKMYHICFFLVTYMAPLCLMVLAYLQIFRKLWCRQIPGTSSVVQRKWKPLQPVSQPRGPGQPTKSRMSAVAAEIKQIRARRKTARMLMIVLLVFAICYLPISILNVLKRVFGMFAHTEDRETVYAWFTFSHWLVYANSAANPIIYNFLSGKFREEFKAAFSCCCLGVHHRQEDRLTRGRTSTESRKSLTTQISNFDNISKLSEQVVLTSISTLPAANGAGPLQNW
# Experiment: Human OX2R IP1 assay
# Assay type: cell-based
# Conditions: T-Rex CHO cells stably overexpressing human OX2R; IP1 accumulation, 1 hr at 37 degrees C; mean EC50
# Procedure: T-Rex CHO cells stably overexpressing the human orexin-2 receptor (OX2R) were induced overnight with 1 μg/mL of doxycycline in a T225 flask. 24 hours post induction, cells were lifted with accutase and plated into a 384-well proxy plate at 30,000 cells/well. Cells were then treated with different test compounds in 1× stimulation buffer containing 10 mM Hepes, 1 mM CaCl2, 0.5 mM MgCl2, 4.2 mM KCl, 146 mM NaCl, 5.5 mM glucose, and 50 mM LiCl, pH 7.4, for 1 hr at 37 degrees C. Following incubation, the reaction was terminated by the addition of detection mix, which is composed of IP1-d2 and anti-IP1-cryptate diluted in lysis buffer as well as 1× stimulation buffer. The plates were allowed to incubate for 1 hour at room temperature and were then read in the EnVision® multimode plate reader, measuring inositol phosphate levels.
# Cisbio IP1 is a cell-based functional assay quantifying the accumulation of inositol monophosphate (IP), a metabolite released as a result of orexin 2 receptor activation through the phospholipase C-Gq signaling pathway. This is a competitive immunoassay in which the IP1 produced by the cells upon receptor activation competes with the IP1 analog coupled to the d2 fluorophore (acceptor) for binding to an anti-IP1 monoclonal antibody labeled with Eu cryptate (donor). The measured HTRF-FRET based signal is inversely proportional to the IP1 concentration produced.
# The EC50 values reported in Table 2 were obtained according to the human OX2R IP1 assay described above. Data are the mean EC50 values±S.E.M.
row,EC50 [nM],Structure (SMILES)
1,1 to 10,CS(=O)(=O)N[C@H]1CCN(C(=O)C2(F)CCC2)C[C@H]1CO[C@H]1CC[C@@H](c2ccc3[nH]ncc3c2)CC1 [Compound 4]
2,> 10,Cn1ccnc1CC(=O)N1CC[C@H](NS(C)(=O)=O)[C@H](CO[C@H]2CC[C@@H](c3ccc4c(cnn4C)c3)CC2)C1 [Compound 49]
3,1 to 10,Cn1cnc2ccc([C@H]3CC[C@@H](OC[C@@H]4CN(c5ccccn5)CC[C@@H]4NS(C)(=O)=O)CC3)cc21 [Compound 9]
4,1 to 10,Cn1ncc2cc([C@H]3CC[C@@H](OC[C@@H]4CN(C(=O)[C@@]5(C)CCOC5)CC[C@@H]4NS(C)(=O)=O)CC3)ccc21 [Compound 28]
5,< 1,Cn1ncc2cc([C@H]3CC[C@@H](OC[C@@H]4CN(c5ccccn5)CC[C@@H]4NS(C)(=O)=O)CC3)ccc21 [Compound 3]
6,< 1,CN(C)S(=O)(=O)N[C@H]1CCN(c2cccnn2)C[C@H]1CO[C@H]1CC[C@@H](c2ccc3c(cnn3C)c2)CC1 [Compound 30]
7,1 to 10,Cn1ncc2cc([C@H]3CC[C@@H](OC[C@@H]4CN(c5cccnn5)CC[C@@H]4NS(C)(=O)=O)CC3)ccc21 [Compound 15]
8,1 to 10,COC(=O)N1CC[C@H](NS(C)(=O)=O)[C@H](CO[C@H]2CC[C@@H](c3ccc4c(cnn4C)c3)CC2)C1 [Compound 12]
9,> 10,Cn1ncc2cc([C@H]3CC[C@@H](OC[C@@H]4CN(C(=O)C5COC5)CC[C@@H]4NS(C)(=O)=O)CC3)ccc21 [Compound 47]
10,> 10,Cn1ncc2cc([C@H]3CC[C@@H](OC[C@@H]4CN(C(=O)CN5CCCCC5)CC[C@@H]4NS(C)(=O)=O)CC3)ccc21 [Compound 46]
11,1 to 10,Cn1ncc2cc([C@H]3CC[C@@H](OC[C@@H]4CN(c5cnccn5)CC[C@@H]4NS(=O)(=O)C(F)(F)F)CC3)ccc21 [Compound 25]
12,> 10,Cn1ncc2cc([C@H]3CC[C@@H](OC[C@@H]4CN(C(=O)Cc5cnccn5)CC[C@@H]4NS(C)(=O)=O)CC3)ccc21 [Compound 51]
13,1 to 10,CN(C)S(=O)(=O)N[C@H]1CCN(C(=O)[C@@H]2CCOC2)C[C@H]1CO[C@H]1CC[C@@H](c2ccc3c(cnn3C)c2)CC1 [Compound 31]
14,1 to 10,Cn1cnc2cc([C@H]3CC[C@@H](OC[C@@H]4CN(c5ccccn5)CC[C@@H]4NS(C)(=O)=O)CC3)ccc21 [Compound 8]
15,> 10,Cn1ncc2cc([C@H]3CC[C@@H](OC[C@@H]4CN(CC(=O)N5CCCCC5)CC[C@@H]4NS(C)(=O)=O)CC3)ccc21 [Compound 61]
16,> 10,Cn1cnc2ccc(C3CCC(OC[C@@H]4CN(c5ccccn5)CC[C@@H]4NS(C)(=O)=O)CC3)cc21 (stereo partly drawn) [Compound 63]
17,< 1,Cn1ncc2cc([C@H]3CC[C@@H](OC[C@@H]4CN(c5ccccn5)CC[C@@H]4NS(=O)(=O)C(F)(F)F)CC3)ccc21 [Compound 10]
18,1 to 10,Cn1ncc2cc([C@H]3CC[C@@H](OC[C@@H]4CN(C(=O)[C@@H]5CCOC5)CC[C@@H]4NS(C)(=O)=O)CC3)ccc21 [Compound 17]
19,> 10,Cn1ncc2ccc([C@H]3CC[C@H](OC[C@@H]4CN(c5ccccn5)CC[C@@H]4NS(C)(=O)=O)CC3)cc21 [Compound 65]
20,1 to 10,Cn1ncc2cc([C@H]3CC[C@@H](OC[C@@H]4CN(C(=O)C(C)(C)C)CC[C@@H]4NS(C)(=O)=O)CC3)ccc21 [Compound 22]
21,1 to 10,Cn1ncc2cc([C@H]3CC[C@@H](OC[C@@H]4CN(c5cccnn5)CC[C@@H]4NS(=O)(=O)C(F)(F)F)CC3)cc(F)c21 [Compound 26]
22,> 10,Cn1ncc2cc([C@H]3CC[C@@H](OC[C@@H]4CN(C(=O)CN5CCOCC5)CC[C@@H]4NS(C)(=O)=O)CC3)ccc21 [Compound 45]
23,1 to 10,Cn1ncc2cc([C@H]3CC[C@@H](OC[C@@H]4CN(C(=O)C5CCOC5)CC[C@@H]4NS(C)(=O)=O)CC3)ccc21 (stereo partly drawn) [Compound 59]
24,< 1,CNS(=O)(=O)N[C@H]1CCN(c2cccnn2)C[C@H]1CO[C@H]1CC[C@@H](c2ccc3c(cnn3C)c2)CC1 [Compound 29]

row,EC50 [nM],Structure (SMILES)
1,> 10,Cn1ncc2cc([C@H]3CC[C@@H](OC[C@@H]4CN(C(=O)C5CCOC5)CC[C@@H]4NS(C)(=O)=O)CC3)ccc21 (stereo partly drawn) [Compound 60]
2,< 1,Cn1cnc2cc([C@H]3CC[C@@H](OC[C@@H]4CN(C(=O)C5(F)CCC5)CC[C@@H]4NS(C)(=O)=O)CC3)ccc21 [Compound 16]
3,1 to 10,Cn1cnc2ccc([C@H]3CC[C@H](OC[C@@H]4CN(c5ccccn5)CC[C@@H]4NS(C)(=O)=O)CC3)cc21 [Compound 64]
4,> 10,Cn1ncc2cc([C@H]3CC[C@@H](OC[C@@H]4CN(C(=O)Cc5ccncn5)CC[C@@H]4NS(C)(=O)=O)CC3)ccc21 [Compound 52]
5,1 to 10,Cn1ncc2cc([C@H]3CC[C@@H](OC[C@@H]4CN(C(=O)c5cncs5)CC[C@@H]4NS(C)(=O)=O)CC3)ccc21 [Compound 27]
6,< 1,CS(=O)(=O)N[C@H]1CCN(c2ccccn2)C[C@H]1CO[C@H]1CC[C@@H](c2ccc3[nH]ncc3c2)CC1 [Compound 1]
7,1 to 10,Cn1ncc2cc([C@H]3CC[C@@H](OC[C@@H]4CN(C(=O)C5CC5)CC[C@@H]4NS(C)(=O)=O)CC3)ccc21 [Compound 18]
8,< 1,Cn1ncc2cc([C@H]3CC[C@@H](OC[C@@H]4CN(c5cccnn5)CC[C@@H]4NS(=O)(=O)C(F)(F)F)CC3)ccc21 [Compound 13]
9,> 10,Cn1ncc2cc([C@H]3CC[C@@H](OC[C@@H]4CN(C(=O)CO)CC[C@@H]4NS(C)(=O)=O)CC3)ccc21 [Compound 48]
10,1 to 10,Cn1ncc2cc([C@H]3CC[C@@H](OC[C@@H]4CN(C(=O)C(C)(C)O)CC[C@@H]4NS(C)(=O)=O)CC3)ccc21 [Compound 21]
11,> 10,CN(C)C(=O)N[C@H]1CCN(c2cccnn2)C[C@H]1CO[C@H]1CC[C@@H](c2ccc3c(cnn3C)c2)CC1 [Compound 58]
12,1 to 10,Cn1ncc2cc([C@H]3CC[C@@H](OC[C@@H]4CN(C(=O)N5CCC5)CC[C@@H]4NS(C)(=O)=O)CC3)ccc21 [Compound 23]
13,1 to 10,Cn1ncc2cc([C@H]3CC[C@@H](OC[C@@H]4CN(C(=O)C5CCOC5)CC[C@@H]4NS(=O)(=O)C(F)(F)F)CC3)ccc21 (stereo partly drawn) [Compound 33]
14,1 to 10,O=S(=O)(N[C@H]1CCN(c2ccccn2)C[C@H]1CO[C@H]1CC[C@@H](c2ccc3[nH]ncc3c2)CC1)C(F)(F)F [Compound 2]
15,> 10,Cn1ncc2cc([C@H]3CC[C@@H](OC[C@@H]4CN(C(=O)Cc5ncccn5)CC[C@@H]4NS(C)(=O)=O)CC3)ccc21 [Compound 50]
16,> 10,Cn1ncc2cc([C@H]3CC[C@@H](OC[C@@H]4CN(C(=O)[C@H]5CCOC5)CC[C@@H]4NS(C)(=O)=O)CC3)ccc21 [Compound 62]
17,1 to 10,Cn1cnc2ccc([C@H]3CC[C@@H](OC[C@@H]4CN(C(=O)C5(F)CCC5)CC[C@@H]4NS(C)(=O)=O)CC3)cc21 [Compound 19]
18,> 10,Cn1ncc2ccc(C3CCC(OC[C@@H]4CN(c5ccccn5)CC[C@@H]4NS(C)(=O)=O)CC3)cc21 (stereo partly drawn) [Compound 66]
19,> 10,Cn1ncc2cc([C@H]3CC[C@@H](OC[C@@H]4CN(C(=O)C5CCO5)CC[C@@H]4NS(C)(=O)=O)CC3)ccc21 (stereo partly drawn) [Compound 53]
20,> 10,Cn1ncc2cc([C@H]3CC[C@@H](OC[C@@H]4CN(c5ccccn5)CC[C@@H]4NS(C)(=O)=O)CC3)ncc21 [Compound 7]
21,1 to 10,Cn1ncc2cc([C@H]3CC[C@@H](OC[C@@H]4CN(C(=O)C5(F)CCC5)CC[C@@H]4NS(=O)(=O)C(F)(F)F)CC3)ccc21 [Compound 14]
22,> 10,CC(=O)N1CC[C@H](NS(C)(=O)=O)[C@H](CO[C@H]2CC[C@@H](c3ccc4c(cnn4C)c3)CC2)C1 [Compound 20]
23,< 1,Cn1ncc2cc([C@H]3CC[C@@H](OC[C@@H]4CN(C(=O)C5(F)CCC5)CC[C@@H]4NS(C)(=O)=O)CC3)ccc21 [Compound 11]
24,1 to 10,COC(=O)N1CC[C@H](NS(C)(=O)=O)[C@H](CO[C@H]2CC[C@@H](c3ccc4[nH]ncc4c3)CC2)C1 [Compound 5]

# From patent publication US20250230141A1, “Substituted Fused Bicyclic Compounds and Related Methods of Treatment” (Alkermes, Inc., priority 2022, published 2025)
